Measured values reported in US11918592B2, “Inhibitors of cyclin dependent kinase 7 (CDK7)” (Syros Pharmaceuticals, Inc., priority 2018, dated 2024).
Where two headings read alike, the source gives them in different places.

Legend:
COV504 cells = experiment: Inhibition of cell proliferation, CyQUANT Direct, COV504; assay type: cell-based; details: Homo sapiens; COV504 ovarian cancer cells, 72-hour; read-out: COV 504 proliferation calculated IC50
Protocol: (§1) HCC70 and MB453 cells are cell lines derived from human triple negative breast cancer. COV318 and COV504 cells are cell lines derived from human ovarian cancer. Representative compounds of the invention were tested at different concentrations (from 4 μM to 126.4 pM; 0.5 log serial dilutions) for their ability to inhibit the proliferation of each of these cell lines. Known CDK inhibitors dinaciclib or N-((1S,3R)-3-((5-chloro-4-(1H-indol-3-yl) pyrimidin-2-yl)amino)cyclohexyl)-5-((E)-4-(dimethylamino)but-2-enamido)picolinamide and triptolide were used as positive controls. Cells were seeded at approximately 2,000 cells/well and grown in ATCC-formulated RPMI-1640 Medium (ATCC 30-2001)+10% FBS. The cells were cultured at 37° C. in a humidified chamber in the presence of 5% CO2. Proliferation assays were conducted over a 72-hour time period. CyQUANT® Direct Cell Proliferation Assay (Life Technologies, Chicago, IL USA) was used to assess the anti-proliferative effects of the compounds following manufacturer's directions and utilizing the reagents supplied with the CyQUANT® Direct Cell kit.

CDK9/Cyclin T1 complex = CDK9/Cyclin T1 complex (Homo sapiens, UniProt P50750); experiment: CDK9 kinase inhibition assay (Caliper/LabChip EZ Reader)
Protocol: (§2) Compounds of the invention were assayed for inhibition of CDK7, CDK9, CDK12, and CDK2 activity at Biortus Biosciences (Jiangyin, Jiangsu Province, P.R. of China) using kinase assays for each CDK developed with a Caliper/LabChip EZ Reader (Perkin Elmer, Waltham, MA).
(§3) Furthermore, the CDK9 inhibition assay used CDK9/Cyclin T1 complex (8 nM) and “5-FAM-CDK9tide” peptide substrate (2 μM, synthesized fluorophore-labeled peptide with the following sequence: 5-FAM-GSRTPMY-NH2 (SEQ ID NO:2) where 5-FAM is defined above and NH2 signifies a C-terminal amide) with 10 mM MgCl2 in the buffer composition listed above. The CDK12 inhibition assay used CDK12 (aa686-1082)/Cyclin K complex (50 nM) and “5-FAM-CDK9tide” (2 μM) as defined above, with 2 mM MgCl2 in the buffer composition above. Additionally, the CDK2 inhibition assay used CDK2/Cyclin E1 complex (0.5 nM) and “5-FAM-CDK7tide” (2 μM) as defined above, with 2 mM MgCl2 in the buffer composition listed above.
(§4) The incubation period at 27° C. for each CDK inhibition assay was chosen such that the fraction of phosphorylated peptide product produced in each assay, relative to the total peptide concentration, was approximately 20% (±5%) for the uninhibited kinase (35 min. for CDK7, 35 min. for CDK2, 3 hr. for CDK12, 15 min. for CDK9).

[1] = molecular target: CDK12 (aa686-1082)/Cyclin K complex (Homo sapiens, UniProt Q9NYV4); experiment: CDK12 kinase inhibition assay (Caliper/LabChip EZ Reader)
Protocol: as §2, §3, §4

MB453 cells = experiment: Inhibition of cell proliferation, CyQUANT Direct, MB453; assay type: cell-based, human; details: Homo sapiens, read-out: MB 453 proliferation calculated IC50
Protocol: as §1

[2] = molecular target: CDK7/Cyclin H/MAT1 complex (Homo sapiens, UniProt P50613); experiment: CDK7 kinase inhibition assay (Caliper/LabChip EZ Reader)
HCC70 cells = experiment: Inhibition of cell proliferation, CyQUANT Direct, HCC70; assay type: cell-based, human; details: Homo sapiens, read-out: HCC 70 proliferation calculated IC50
Protocol: as §1

COV318 cells = experiment: Inhibition of cell proliferation, CyQUANT Direct, COV318; assay type: cell-based; details: Homo sapiens; COV318 ovarian cancer cells, 72-hour; read-out: COV 318 proliferation calculated IC50
Protocol: as §1

CDK2/Cyclin E1 complex = CDK2/Cyclin E1 complex (Homo sapiens, UniProt P24941); experiment: CDK2 kinase inhibition assay (Caliper/LabChip EZ Reader)
Protocol: as §2, §3, §4

[3] = MB453 triple negative breast cancer cells, 72-hour
[4] = HCC70 triple negative breast cancer cells, 72-hour

CDK9/Cyclin T1 complex, sequence (P50750 whole entry, the tested form may be a part): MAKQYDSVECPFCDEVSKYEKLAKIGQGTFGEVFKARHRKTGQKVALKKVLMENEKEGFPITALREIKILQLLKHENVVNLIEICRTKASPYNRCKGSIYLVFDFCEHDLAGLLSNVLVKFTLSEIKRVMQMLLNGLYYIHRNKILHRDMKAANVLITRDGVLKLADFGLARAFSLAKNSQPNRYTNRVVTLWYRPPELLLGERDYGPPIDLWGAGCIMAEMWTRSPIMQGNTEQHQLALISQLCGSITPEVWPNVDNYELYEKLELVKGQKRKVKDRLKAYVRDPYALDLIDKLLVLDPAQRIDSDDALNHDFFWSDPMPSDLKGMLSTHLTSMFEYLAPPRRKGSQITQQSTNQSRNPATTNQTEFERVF
CDK9/Cyclin T1 complex, sequence (O60563 whole entry partner, the tested form may be a part): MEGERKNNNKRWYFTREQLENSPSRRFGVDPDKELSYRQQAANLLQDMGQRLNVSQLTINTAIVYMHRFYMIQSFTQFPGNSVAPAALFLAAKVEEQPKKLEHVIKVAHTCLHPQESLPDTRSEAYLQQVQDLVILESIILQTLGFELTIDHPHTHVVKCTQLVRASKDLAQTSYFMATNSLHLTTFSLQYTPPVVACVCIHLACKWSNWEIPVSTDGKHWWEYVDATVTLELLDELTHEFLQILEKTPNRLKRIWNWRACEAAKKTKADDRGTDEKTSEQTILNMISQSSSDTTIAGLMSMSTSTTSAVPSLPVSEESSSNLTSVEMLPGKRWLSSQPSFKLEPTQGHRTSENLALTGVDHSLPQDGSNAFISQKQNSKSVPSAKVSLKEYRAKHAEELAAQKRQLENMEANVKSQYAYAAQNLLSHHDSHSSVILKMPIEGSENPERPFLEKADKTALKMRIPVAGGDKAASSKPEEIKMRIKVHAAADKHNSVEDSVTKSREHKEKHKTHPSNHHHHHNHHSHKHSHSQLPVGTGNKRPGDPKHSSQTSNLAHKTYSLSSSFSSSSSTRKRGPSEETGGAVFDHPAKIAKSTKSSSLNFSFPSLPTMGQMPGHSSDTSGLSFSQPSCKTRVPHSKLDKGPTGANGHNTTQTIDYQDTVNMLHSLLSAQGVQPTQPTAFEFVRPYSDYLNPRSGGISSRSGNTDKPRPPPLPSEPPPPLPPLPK
CDK7/Cyclin H/MAT1 complex, sequence (P50613 whole entry): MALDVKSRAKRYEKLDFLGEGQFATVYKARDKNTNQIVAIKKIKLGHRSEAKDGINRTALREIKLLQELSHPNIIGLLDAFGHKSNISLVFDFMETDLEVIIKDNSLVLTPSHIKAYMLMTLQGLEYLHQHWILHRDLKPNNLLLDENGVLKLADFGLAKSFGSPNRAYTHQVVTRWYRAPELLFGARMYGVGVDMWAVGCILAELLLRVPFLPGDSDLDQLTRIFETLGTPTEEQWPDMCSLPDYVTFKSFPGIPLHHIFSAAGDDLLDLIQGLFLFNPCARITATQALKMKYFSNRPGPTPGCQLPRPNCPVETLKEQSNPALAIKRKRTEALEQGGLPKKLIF
CDK7/Cyclin H/MAT1 complex, sequence (P51946 whole entry partner): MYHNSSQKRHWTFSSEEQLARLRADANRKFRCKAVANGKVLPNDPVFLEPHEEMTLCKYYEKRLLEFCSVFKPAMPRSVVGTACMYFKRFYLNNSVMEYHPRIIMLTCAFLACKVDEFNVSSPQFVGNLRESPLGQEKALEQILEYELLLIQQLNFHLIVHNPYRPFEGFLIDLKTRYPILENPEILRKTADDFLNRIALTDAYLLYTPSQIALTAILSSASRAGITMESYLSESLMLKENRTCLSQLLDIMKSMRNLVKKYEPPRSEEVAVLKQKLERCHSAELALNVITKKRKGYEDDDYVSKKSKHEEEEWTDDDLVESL
CDK7/Cyclin H/MAT1 complex, sequence (P51948 whole entry partner): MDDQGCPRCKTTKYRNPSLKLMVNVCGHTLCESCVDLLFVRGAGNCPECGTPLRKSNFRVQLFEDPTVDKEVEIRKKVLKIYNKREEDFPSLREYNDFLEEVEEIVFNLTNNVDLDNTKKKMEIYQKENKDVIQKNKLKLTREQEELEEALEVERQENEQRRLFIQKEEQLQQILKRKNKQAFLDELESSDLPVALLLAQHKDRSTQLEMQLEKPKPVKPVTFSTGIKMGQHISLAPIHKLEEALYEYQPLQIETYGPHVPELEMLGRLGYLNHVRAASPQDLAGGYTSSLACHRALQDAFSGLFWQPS
CDK12 (aa686-1082)/Cyclin K complex, sequence (Q9NYV4 686-1082): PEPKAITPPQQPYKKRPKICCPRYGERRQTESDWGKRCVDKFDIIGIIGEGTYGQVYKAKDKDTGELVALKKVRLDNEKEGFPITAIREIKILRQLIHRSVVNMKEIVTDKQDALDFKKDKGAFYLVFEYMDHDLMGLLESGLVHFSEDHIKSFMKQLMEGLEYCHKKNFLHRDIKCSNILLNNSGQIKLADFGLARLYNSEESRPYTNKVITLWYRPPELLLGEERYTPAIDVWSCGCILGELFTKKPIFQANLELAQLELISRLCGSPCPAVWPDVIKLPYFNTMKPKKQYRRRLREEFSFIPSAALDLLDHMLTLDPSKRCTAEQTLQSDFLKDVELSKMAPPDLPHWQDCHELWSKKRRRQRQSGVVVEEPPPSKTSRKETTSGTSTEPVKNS
CDK12 (aa686-1082)/Cyclin K complex, sequence (O75909 whole entry partner, the tested form may be a part): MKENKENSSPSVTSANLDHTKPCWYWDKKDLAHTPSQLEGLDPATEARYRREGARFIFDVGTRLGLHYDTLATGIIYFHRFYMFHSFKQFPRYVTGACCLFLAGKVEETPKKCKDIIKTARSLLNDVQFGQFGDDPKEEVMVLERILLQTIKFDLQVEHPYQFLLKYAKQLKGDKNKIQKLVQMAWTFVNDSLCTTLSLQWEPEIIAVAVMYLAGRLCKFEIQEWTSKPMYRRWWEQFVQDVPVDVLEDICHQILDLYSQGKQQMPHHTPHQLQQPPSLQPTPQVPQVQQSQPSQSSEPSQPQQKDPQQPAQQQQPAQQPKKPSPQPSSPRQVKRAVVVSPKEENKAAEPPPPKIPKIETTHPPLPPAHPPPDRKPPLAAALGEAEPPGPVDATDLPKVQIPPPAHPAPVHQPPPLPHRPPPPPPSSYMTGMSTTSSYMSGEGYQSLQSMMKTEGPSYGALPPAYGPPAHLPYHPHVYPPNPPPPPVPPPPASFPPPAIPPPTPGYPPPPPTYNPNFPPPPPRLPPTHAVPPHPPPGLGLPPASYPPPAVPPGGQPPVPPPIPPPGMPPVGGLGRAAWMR

SMILES | IC50 (COV504 cells) [nM] | IC50 (CDK9/Cyclin T1 complex) [nM] | IC50 [1] [nM] | IC50 (MB453 cells; [3]) [nM] | IC50 [2] [nM] | IC50 (HCC70 cells; [4]) [nM] | IC50 (COV318 cells) [nM] | IC50 (CDK2/Cyclin E1 complex) [nM] | IC50 (MB453 cells; 72 h) [nM] | IC50 (HCC70 cells; HCC70, 72 h) [nM]
N#Cc1ccc2c(-c3nc(N[C@@H]4C[C@@H]5CCC4N5)ncc3C(F)(F)F)c[nH]c2c1 (racemic) [Compound 106, 3-(2-[[(+/−)-exo-7-azabicyclo[2.2.1]heptan-2-yl]amino]-5-(trifluoromethyl)pyrimidin-4-yl)-1H-indole-6-carbonitrile] | 100 to 500 | > 500 | > 500 | 100 to 500 | < 30 | 100 to 500 | 100 to 500 | > 500 | – | –
CCN[C@H]1CC[C@@H]1Nc1ncc(C(F)(F)F)c(-c2c[nH]c3cc(C#N)ccc23)n1 [Compound 131, 3-[2-[[(1S,2S)-2-(ethylamino)cyclobutyl]-amino]-5-(trifluoromethyl)pyrimidin-4-yl]-1H-indole-6-carbonitrile] | 100 to 500 | > 500 | > 500 | 100 to 500 | < 30 | 500 to 2000 | 500 to 2000 | > 500 | – | –
COC1CN([C@H]2CCC[C@@H]2Nc2ncc(C(F)(F)F)c(-c3c[nH]c4nc(-c5c(C)noc5C)ccc34)n2)C1 [Compound 164, 4-[6-(3,5-dimethylisoxazol-4-yl)-1H-pyrrolo[2,3-b]pyridin-3-yl]-N-[(1S,2S)-2-(3-methoxyazetidin-1-yl)cyclopentyl]-5-(trifluoromethyl)pyrimidin-2-amine] | 100 to 500 | > 500 | > 500 | 100 to 500 | < 30 | 100 to 500 | > 2000 | > 500 | – | –
N#Cc1ccc2c(-c3nc(N[C@@H]4CC[C@H]4N4CCOCC4)ncc3C(F)(F)F)c[nH]c2c1 [Compound 132] | > 2000 | > 500 | > 500 | > 2000 | > 500 | > 2000 | > 2000 | > 500 | – | –
CCN[C@H]1CCC[C@@H]1Nc1ncc(C(F)(F)F)c(-c2c[nH]c3cc(C#N)ccc23)n1 [Compound 128, 3-[2-[[(1S,2S)-2-(ethylamino)cyclopentyl]-amino]-5-(trifluoromethyl)pyrimidin-4-yl]-1H-indole-6-carbonitrile] | < 100 | > 500 | > 500 | < 100 | < 30 | < 100 | 100 to 500 | > 500 | – | –
Cc1noc(C)c1-c1ccc2c(-c3nc(N[C@H]4CCC[C@@H]4N)ncc3C(F)(F)F)n[nH]c2n1 [Compound 157, (1S,2S)—N1-[4-[6-(3,5-dimethylisoxazol-4-yl)-1H-pyrazolo [3,4-b]pyridin-3-yl]-5-(trifluoromethyl)pyrimidin-2-yl]cyclopentane-1,2-diamine] | 100 to 500 | > 500 | > 500 | 100 to 500 | < 30 | 100 to 500 | 100 to 500 | > 500 | – | –
CCN[C@H]1CCC[C@@H]1Nc1ncc(C(F)(F)F)c(-c2c[nH]c3nc(-c4c(C)noc4C)ccc23)n1 [Compound 145, (1S, 2S)—N1-[4-[6-(3,5-dimethylisoxazol-4-yl)-1H-pyrrolo [2,3-b]pyridin-3-yl]-5-(trifluoromethyl)pyrimidin-2-yl]-N2-ethyl-cyclopentane-1,2-diamine] | < 100 | > 500 | > 500 | – | < 30 | – | < 100 | > 500 | < 100 | < 100
Cc1noc(C)c1-c1ccc2c(-c3nc(N[C@H]4CC[C@@H]4N)ncc3C(F)(F)F)c[nH]c2n1 [Compound 129, (1S,2S)—N2-[4-[6-(3,5-dimethylisoxazol-4-yl)-1H-pyrrolo[2,3-b]pyridin-3-yl]-5-(trifluoromethyl)pyrimidin-2-yl]-cyclobutane-1,2-diamine] | < 100 | > 500 | > 500 | < 100 | < 30 | 100 to 500 | 100 to 500 | > 500 | – | –
Cc1noc(C)c1-c1ccc2c(-c3nc(N[C@H]4CCC[C@H]4N4CC(O)C4)ncc3C(F)(F)F)c[nH]c2n1 [Compound 163, 1-[(1R,2S)-2-[[4-[6-(3,5-dimethylisoxazol-4-yl)-1H-pyrrolo[2,3-b]pyridin-3-yl]-5-(trifluoromethyl)pyrimidin-2-yl]amino]cyclopentyl]azetidin-3-ol] | > 2000 | > 500 | > 500 | 500 to 2000 | 30 to 100 | > 2000 | > 2000 | > 500 | – | –
N#Cc1ccc2c(-c3nc(N[C@H]4CC[C@@H]4N4CCOCC4)ncc3C(F)(F)F)c[nH]c2c1 [Compound 130] | > 2000 | > 500 | > 500 | > 2000 | 100 to 500 | > 2000 | > 2000 | > 500 | – | –
CN1CC[C@H](Nc2ncc(C(F)(F)F)c(-c3c[nH]c4cc(C#N)ccc34)n2)C1 [Compound 109] | 500 to 2000 | > 500 | > 500 | 500 to 2000 | 100 to 500 | 500 to 2000 | 500 to 2000 | > 500 | – | –
CP(C)(=O)c1c(C#N)ccc2c(-c3nc(N[C@H]4CCC[C@@H]4N)ncc3C(F)(F)F)c[nH]c12 [Compound 161, 3-[2-[[(1S,2S)-2-aminocyclopentyl]amino]-5-(trifluoromethyl)pyrimidin-4-yl]-7-dimethylphosphoryl-1H-indole-6-carbonitrile] | < 100 | > 500 | > 500 | < 100 | < 30 | < 100 | 100 to 500 | > 500 | – | –
N#Cc1ccc2c(-c3nc(N[C@@H]4C[C@@H]5CC[C@H]4N5)ncc3C(F)(F)F)c[nH]c2c1 [Compound 115, 3-[2-[[(1R,2R,4S)-7-azabicyclo[2.2.1]heptan-3-yl]amino]-5-(trifluoromethyl)pyrimidin-4-yl]-1H-indole-6-carbonitrile] | 100 to 500 | > 500 | > 500 | 100 to 500 | 30 to 100 | 500 to 2000 | 500 to 2000 | > 500 | – | –
CC(=O)N[C@H]1CC[C@@H]1Nc1ncc(C(F)(F)F)c(-c2c[nH]c3cc(C#N)ccc23)n1 [Compound 125, N-[(1S,2S)-2-[[4-(6-cyano-1H-indol-3-yl)-5-(trifluoromethyl)pyrimidin-2-yl]-amino]-cyclobutyl]-acetamide] | > 2000 | > 500 | > 500 | 500 to 2000 | > 500 | > 2000 | > 2000 | > 500 | – | –
Cc1noc(C)c1-c1ccc2c(-c3nc(N[C@H]4CCC[C@@H]4N4CC(F)(F)C4)ncc3C(F)(F)F)c[nH]c2n1 [Compound 166, N-[(1S,2S)-2-(3,3-difluoroazetidin-1-yl)cyclopentyl]-4-[6-(3,5-dimethylisoxazol-4-yl)-1H-pyrrolo[2,3-b]pyridin-3-yl]-5-(trifluoromethyl)pyrimidin-2-amine] | > 2000 | > 500 | > 500 | > 2000 | > 500 | > 2000 | > 2000 | > 500 | – | –
